US20050176775A1, “Substituted pyridinones” (priority 2003, published 2005)

Compound | melting point
Cl.O=c1c(Br)c(OCc2ccccc2)ccn1CC1CCNCC1 [Example 25, 4-(benzyloxy)-3-bromo-1-(piperidin-4-ylmethyl)pyridin-2(1H)-one Hydrochloride] | 207.9 °C
COC(=O)c1cccc(Cn2ccc(OCc3ccc(F)cc3F)c(Cl)c2=O)c1F [Example 105, Methyl 3-[3-chloro-4-(2,4-difluorobenzyloxy)-2-oxo-2H-pyridin-1-ylmethyl]-2-fluoro-benzoate] | 171 to 174 °C
Br.Cn1ccc(OCc2ccccc2)c(Br)c1=O [Example 22, 4-(benzyloxy)-3-bromo-1-methylpyridin-2(1H)-one Hydrobromide] | 105.3 to 105.6 °C
O=c1c(Br)c(OCc2ccccc2C(F)(F)F)ccn1Cc1ccccc1 [Example 47, 1-benzyl-3-bromo-4-{[2-(trifluoromethyl)benzyl]oxy}pyridin-2(1H)-one] | 133.2 to 133.5 °C
CS(=O)(=O)c1cccc(Cn2ccc(OCc3ccc(F)cc3F)c(Cl)c2=O)c1 [Example 81, 3-chloro-4-(2,4-difluorobenzyloxy)-1-[(3-methanesulfonyl)benzyl]-1H-pyridin-2-one] | 155 to 157 °C
O=c1c(Cl)c(OCc2ccc(F)cc2F)ccn1Cc1ccc2[nH]ccc2c1 [Example 86, 3-chloro-4-(2,4-difluorobenzyloxy)-1-(1H-indol-5-ylmethyl)-1H-pyridin-2-one] | 152 to 153 °C
COC(=O)c1cccc(Cn2ccc(OCc3ccc(F)cc3F)c(Br)c2=O)c1 [Example 100, Methyl 3-[3-Bromo-4-(2,4-difluorobenzyloxy)-2-oxo-2H-pyridin-1-ylmethyl]benzoate] | 115 to 117 °C
CC(C)(C)OC(=O)NCc1cccc(Cn2ccc(OCc3ccc(F)cc3F)c(Br)c2=O)c1 [Example 78, {3-[3-bromo-4-(2,4-difluorobenzyloxy)-2-oxo-2H-pyridin-1-ylmethyl]benzyl}carbamic Acid Tert-Butyl Ester] | 80 to 84 °C
Cc1c(OCc2ccc(F)cc2F)ccn(Cc2cccc(F)c2)c1=O [Example 129, 4-(2,4-Difluorobenzyloxy)-1-(3-fluorobenzyl)-3-methyl-1H-pyridin-2-one] | 127 to 129 °C
O=c1c(Br)c(OCc2ccc(F)c(F)c2F)ccn1Cc1cccc(F)c1 [Example 108, 3-bromo-1-(3-fluorobenzyl)-4-(2,3,4-trifluorobenzyloxy)-1H-pyridin-2-one] | 176 to 178 °C
O=C(O)C(F)(F)F.O=c1c(Cl)c(OCc2ccc(F)cc2F)ccn1Cc1cccc2cnccc12 | 235 to 238 °C
O=c1c(Cl)c(OCc2ccc(F)cc2F)ccn1Cc1ccc2c(c1)CCN2 [Example 88, 3-chloro-4-(2,4-difluorobenzyloxy)-1-(2,3-dihydro-1H-indol-5-ylmethyl)-1H-pyridin-2-one] | 137 to 139 °C
NCc1cccc(Cn2ccc(OCc3ccc(F)cc3F)c(Br)c2=O)c1F [Example 104, 1-(3-aminomethyl-2-fluorobenzyl)-3-bromo-4-(2,4-difluorobenzyloxy)-1H-pyridin-2-one] | 160 to 163 °C
N#CCc1cccc(Cn2ccc(OCc3ccc(F)cc3F)c(Br)c2=O)c1 [Example 97, {3-[3-bromo-4-(2,4-difluorobenzyloxy)-2-oxo-2H-pyridin-1-ylmethyl]-phenyl}acetonitrile] | 120 to 121 °C
O=c1c(Br)c(OCc2ccc(F)c(F)c2)ccn1Cc1cccc(F)c1 [Example 112, 3-bromo-4-(3,4-difluorobenzyloxy)-1-(3-fluorobenzyl)-1H-pyridin-2-one] | 172 to 174 °C
CNCc1cccc(Cn2ccc(OCc3ccc(F)cc3F)c(Br)c2=O)c1 [Example 77, 3-Bromo-4-(2,4-difluorobenzyloxy)-1-[(3-methylaminomethyl)benzyl]-1H-pyridin-2-one] | 107 to 111 °C
O=c1c(I)c(OCc2ccc(F)cc2F)ccn1Cc1cccc(F)c1 [Example 130, 4-(2,4-Difluorobenzyloxy)-1-(3-fluorobenzyl)-3-iodo-1H-pyridin-2-one] | 164 to 167 °C
O=c1cc(OCc2ccccc2Cl)ccn1Cc1ccccc1 [Example 42, 1-benzyl-4-[(2-chlorobenzyl)oxy]pyridin-2(1H)-one] | 124.6 to 125 °C
O=c1c(Br)c(OCc2ccccc2Cl)ccn1Cc1ccccc1 [Example 43, 1-benzyl-3-bromo-4-[(2-chlorobenzyl)oxy]pyridin-2(1H)-one] | 143.3 to 145.5 °C
CN(C)Cc1ccc(Cn2ccc(OCc3ccc(F)cc3F)c(Br)c2=O)cc1 [Example 74, 3-bromo-4-(2,4-difluorobenzyloxy)-1-[(4-dimethylaminomethyl)benzyl]-1H-pyridin-2-one] | 111 to 113 °C
CC(C)(C)OC(=O)NCc1cccc(Cn2ccc(OCc3ccc(F)cc3)c(Br)c2=O)c1 [Example 70, {3-[3-bromo-4-(4-fluorobenzyloxy)-2-oxo-2H-pyridin-1-ylmethyl]benzyl}carbamic Acid Tert-Butyl Ester] | 136 to 138 °C
NC(=O)c1ccc(Cn2ccc(OCc3ccc(F)cc3F)c(Br)c2=O)cc1 [Example 103, 4-[3-bromo-4-(2,4-difluorobenzyloxy)-2-oxo-2H-pyridin-1-ylmethyl]benzamide] | 235 to 238 °C

Compound | melting point
O=c1c(Cl)c(OCc2ccc(F)cc2F)ccn1Cc1cccc2c1CCNC2 [Example 85, 3-chloro-4-(2,4-difluorobenzyloxy)-1-(1,2,3,4-tetrahydroisoquinolin-5-ylmethyl)-1H-pyridin-2-one] | 180 to 184 °C
N#Cc1ccccc1Cn1ccc(OCc2ccc(F)cc2F)c(Br)c1=O [Example 98, 2-[3-bromo-4-(2,4-difluorobenzyloxy)-2-oxo-2H-pyridin-1-ylmethyl]benzonitrile] | 194 to 197 °C
NC(=O)c1cccc(Cn2ccc(OCc3ccc(F)cc3F)c(Br)c2=O)c1 [Example 102, 3-[3-bromo-4-(2,4-difluorobenzyloxy)-2-oxo-2H-pyridin-1-ylmethyl]benzamide] | 198 to 201 °C
NC(=O)c1cccc(Cn2ccc(OCc3ccc(F)cc3F)c(Cl)c2=O)c1F [Example 106, 3-[3-chloro-4-(2,4-difluorobenzyloxy)-2-oxo-2H-pyridin-1-ylmethyl]-2-fluoro-benzamide] | 252 to 254 °C
Cc1c(OCc2ccc(F)cc2F)cc(C)n(C2CCCCC2)c1=O [Example 132, 1-cyclohexyl-4-(2,4-difluorobenzyloxy)-3,6-dimethyl-1H-pyridin-2-one] | 118 to 120 °C
CS(=O)(=O)c1ccc(Cn2ccc(OCc3ccc(F)cc3F)c(Cl)c2=O)cc1 [Example 82, 3-chloro-4-(2,4-difluorobenzyloxy)-1-[(4-methanesulfonyl)benzyl]-1H-pyridin-2-one] | 223 to 225 °C
CC(C)NCc1ccc(Cn2ccc(OCc3ccc(F)cc3F)c(Cl)c2=O)cc1 [Example 80, 3-chloro-4-(2,4-difluorobenzyloxy)-1-[4-(isopropylaminomethyl)benzyl]-1H-pyridin-2-one] | 146 to 151 °C
O=c1c(Br)c(OCc2ccc(F)cc2)ccn1CC1CC1 [Example 59, 3-bromo-1-cyclopropylmethyl-4-(4-fluorobenzyloxy)-1H-pyridin-2-one] | 139 to 141 °C
NC(=NO)c1ccc(Cn2ccc(OCc3ccccc3)c(Br)c2=O)cc1 [Example 24, 4-{[4-(benzyloxy)-3-bromo-2-oxopyridin-1(2H)-yl]methyl}-N′-hydroxybenzenecarboximidamide] | 210.2 to 212.2 °C
O=c1cc(OCc2c(Cl)cccc2Cl)ccn1Cc1ccccc1 [Example 40, 1-benzyl-4-[2,6-(dichlorobenzyl)oxy]pyridin-2(1H)-one] | 151.6 to 152 °C
COC(=O)c1ccc(Cn2ccc(OCc3ccc(F)cc3F)c(Br)c2=O)cc1 [Example 101, Methyl 4-[3-Bromo-4-(2,4-difluorobenzyloxy)-2-oxo-2H-pyridin-1-ylmethyl]-benzoate] | 136 to 139 °C
NC(=O)c1ccc(Cn2ccc(OCc3ccc(F)cc3F)c(Cl)c2=O)cc1 [Example 83, 4-[3-chloro-4-(2,4-difluorobenzyloxy)-2-oxo-2H-pyridin-1-ylmethyl]benzamide] | 235 to 238 °C
Cl.O=c1c(Br)c(OCc2ccccc2)ccn1CC1CCCNC1 (centres unmarked) | 138.1 to 139.2 °C
COC(=O)c1ccccc1Cn1ccc(OCc2ccc(F)cc2)c(Br)c1=O [Example 72, methyl 2-[3-Bromo-4-(4-fluorobenzyloxy)-2-oxo-2H-pyridin-1-ylmethyl]benzoate] | 161 to 165 °C
NC(=O)Cc1cccc(Cn2ccc(OCc3ccc(F)cc3F)c(Br)c2=O)c1 [Example 128, 2-{3-[3-Bromo-4-(2,4-difluorobenzyloxy)-2-oxo-2H-pyridin-1-ylmethyl]phenyl}acetamide] | 164 to 167 °C
NCc1cccc(Cn2ccc(OCc3ccc(F)cc3)c(Br)c2=O)c1.O=C(O)C(F)(F)F | 127 to 139 °C
CN(C)Cc1cccc(Cn2ccc(OCc3ccc(F)cc3F)c(Br)c2=O)c1 [Example 76, 3-bromo-4-(2,4-difluorobenzyloxy)-1-[(3-dimethylaminomethyl)benzyl]-1H-pyridin-2-one] | 103 to 107 °C
O=c1c(Br)c(SCc2ccccc2)ccn1Cc1ccccc1 [Example 46, 1-benzyl-4-[benzylthio]-3-bromopyridin-2(1H)-one] | 180.6 to 182.1 °C
Cc1ccc(Cn2ccc(OCc3ccccc3)c(Br)c2=O)cc1 [Example 2, 4-(benzyloxy)-3-bromo-1-(4-methylbenzyl)pyridin-2(1H)-one] | 150.4 to 151.2 °C
O=c1c(Br)c(OCc2ccccc2)ccn1CCc1cccs1 [Example 30, 4-(benzyloxy)-3-bromo-1-(2-thien-2-ylethyl)pyridin-2(1H)-one] | 128 to 129.5 °C
CC(C)NCc1cccc(Cn2ccc(OCc3ccc(F)cc3F)c(Br)c2=O)c1 [Example 75, 3-bromo-4-(2,4-difluorobenzyloxy)-1-[3-(isopropylaminomethyl)benzyl]-1H-pyridin-2-one] | 109 to 110 °C
NCc1cccc(Cn2ccc(OCc3ccc(F)cc3F)c(Br)c2=O)c1.O=C(O)C(F)(F)F | 80 to 84 °C
